IC50 data for 18 compounds are collected here from ChEMBL document CHEMBL2062359, “Pyrimidinopyrimidine inhibitors of ketohexokinase: exploring the ring C2 group that interacts with Asp-27B in the ligand binding pocket” (Bioorg Med Chem Lett, 2012).

The target of assay [1] is T1, Ketohexokinase (Homo sapiens, UniProt P50053).
T1 sequence (P50053 whole entry): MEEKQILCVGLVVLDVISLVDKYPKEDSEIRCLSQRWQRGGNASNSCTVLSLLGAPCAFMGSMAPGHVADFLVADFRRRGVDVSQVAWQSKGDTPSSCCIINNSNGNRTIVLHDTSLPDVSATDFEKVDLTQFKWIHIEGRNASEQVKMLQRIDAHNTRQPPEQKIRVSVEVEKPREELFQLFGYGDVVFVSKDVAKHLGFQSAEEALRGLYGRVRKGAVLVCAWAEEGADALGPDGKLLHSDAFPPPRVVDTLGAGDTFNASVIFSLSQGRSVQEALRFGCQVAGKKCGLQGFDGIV
Put plainly: Inhibition of recombinant human hepatic KHKC.

The target in assay [2] is T1, Ketohexokinase. Put plainly: Inhibition of KHKC in human HepG2 cells assessed as level of fructose-1-phosphate. The assay is classed as cell-based.
For assay [3], the target named is Tyrosine-protein kinase ABL1 (Homo sapiens, UniProt P00519). Put plainly: Inhibition of ABL1 by FRET assay.
The target of assay [4] is Activin receptor type-1B (Homo sapiens, UniProt P36896). Put plainly: Inhibition of ALK4 by FRET assay.
Activin receptor type-1B, sequence (P36896 whole entry): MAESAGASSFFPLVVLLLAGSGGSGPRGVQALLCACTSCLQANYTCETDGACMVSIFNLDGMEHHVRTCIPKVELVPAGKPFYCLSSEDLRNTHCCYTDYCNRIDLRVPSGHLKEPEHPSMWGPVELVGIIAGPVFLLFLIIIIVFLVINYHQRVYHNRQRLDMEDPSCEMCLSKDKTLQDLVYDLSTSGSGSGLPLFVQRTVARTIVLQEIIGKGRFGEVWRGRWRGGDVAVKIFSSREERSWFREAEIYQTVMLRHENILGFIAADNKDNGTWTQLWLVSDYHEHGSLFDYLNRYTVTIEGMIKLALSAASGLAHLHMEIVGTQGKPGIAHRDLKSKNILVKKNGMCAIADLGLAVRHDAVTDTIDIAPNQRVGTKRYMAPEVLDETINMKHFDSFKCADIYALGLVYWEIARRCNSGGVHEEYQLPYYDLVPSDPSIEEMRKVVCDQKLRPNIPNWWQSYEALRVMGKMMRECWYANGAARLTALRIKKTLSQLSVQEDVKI
The target in assay [5] is RAC-alpha serine/threonine-protein kinase (Homo sapiens, UniProt P31749). The assay can be described thus: Inhibition of AKT1 by FRET assay.
The target of assay [6] is AMP-activated protein kinase (AMPK) alpha-1/beta-1/gamma-1 (Homo sapiens, UniProt P54619+Q13131+Q9Y478). Put plainly: Inhibition of AMPK A1/B1/G1 by FRET assay. The assay is classed as protein-complex assay.
The target of assay [7] is Aurora kinase A (Homo sapiens, UniProt O14965). The assay can be described thus: Inhibition of AURKA by FRET assay.
Aurora kinase A, sequence (O14965 whole entry): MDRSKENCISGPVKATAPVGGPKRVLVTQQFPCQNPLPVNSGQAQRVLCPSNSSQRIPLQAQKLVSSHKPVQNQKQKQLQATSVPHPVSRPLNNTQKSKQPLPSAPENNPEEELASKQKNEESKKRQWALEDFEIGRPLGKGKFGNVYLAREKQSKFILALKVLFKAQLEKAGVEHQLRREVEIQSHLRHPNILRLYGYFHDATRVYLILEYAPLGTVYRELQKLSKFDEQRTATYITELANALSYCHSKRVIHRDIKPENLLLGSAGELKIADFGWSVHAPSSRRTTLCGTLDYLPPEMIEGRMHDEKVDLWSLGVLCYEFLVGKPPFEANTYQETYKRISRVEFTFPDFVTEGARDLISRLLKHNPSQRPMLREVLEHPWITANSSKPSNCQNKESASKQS
Assay [8] deals with Calcium/calmodulin-dependent protein kinase type 1D (Homo sapiens, UniProt Q8IU85). The assay can be described thus: Inhibition of CAMK1D by FRET assay.
For assay [9], the target named is Cyclin-dependent kinase 1/cyclin B1 (Homo sapiens, UniProt P06493). The assay can be described thus: Inhibition of CDK1/cyclin B by FRET assay. The format is protein-complex assay.
Assay [10] deals with Serine/threonine-protein kinase Chk1 (Homo sapiens, UniProt O14757). The assay can be described thus: Inhibition of CHEK1 by FRET assay.
In assay [11] the target is Serine/threonine-protein kinase Chk2 (Homo sapiens, UniProt O96017). Put plainly: Inhibition of CHEK2 by FRET assay.
In assay [12] the target is Casein kinase I isoform delta (Homo sapiens, UniProt P48730). The assay can be described thus: Inhibition of CSNK1D by FRET assay.
Casein kinase I isoform delta, sequence (P48730 whole entry, canonical isoform): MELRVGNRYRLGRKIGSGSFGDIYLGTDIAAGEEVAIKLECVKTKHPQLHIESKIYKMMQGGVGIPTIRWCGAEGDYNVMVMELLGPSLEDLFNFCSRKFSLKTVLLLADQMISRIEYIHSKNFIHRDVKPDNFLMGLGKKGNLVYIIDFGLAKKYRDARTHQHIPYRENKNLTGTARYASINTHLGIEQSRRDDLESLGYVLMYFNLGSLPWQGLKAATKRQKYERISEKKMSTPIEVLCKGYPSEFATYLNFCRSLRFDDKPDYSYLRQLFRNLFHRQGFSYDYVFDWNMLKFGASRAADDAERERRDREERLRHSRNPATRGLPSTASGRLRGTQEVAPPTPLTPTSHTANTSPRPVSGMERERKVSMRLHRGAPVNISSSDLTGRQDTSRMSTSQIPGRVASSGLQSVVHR
Assay [13] addresses Death-associated protein kinase 3 (Homo sapiens, UniProt O43293). Put plainly: Inhibition of DAPK3 by FRET assay.
Assay [14] has as its target Ephrin type-B receptor 1 (Homo sapiens, UniProt P54762). Put plainly: Inhibition of EPHB1 by FRET assay.
Assay [15] deals with Glycogen synthase kinase-3 beta (Homo sapiens, UniProt P49841). Put plainly: Inhibition of GSK3B by FRET assay.
Assay [16] addresses Interleukin-1 receptor-associated kinase 4 (Homo sapiens, UniProt Q9NWZ3). Put plainly: Inhibition of IRAK4 by FRET assay.
The target of assay [17] is Tyrosine-protein kinase JAK2 (Homo sapiens, UniProt O60674). The assay can be described thus: Inhibition of JAK2 by FRET assay.
For assay [18], the target named is Mitogen-activated protein kinase 13 (Homo sapiens, UniProt O15264). The assay can be described thus: Inhibition of MAPK13 by FRET assay.
Mitogen-activated protein kinase 13, sequence (O15264 whole entry): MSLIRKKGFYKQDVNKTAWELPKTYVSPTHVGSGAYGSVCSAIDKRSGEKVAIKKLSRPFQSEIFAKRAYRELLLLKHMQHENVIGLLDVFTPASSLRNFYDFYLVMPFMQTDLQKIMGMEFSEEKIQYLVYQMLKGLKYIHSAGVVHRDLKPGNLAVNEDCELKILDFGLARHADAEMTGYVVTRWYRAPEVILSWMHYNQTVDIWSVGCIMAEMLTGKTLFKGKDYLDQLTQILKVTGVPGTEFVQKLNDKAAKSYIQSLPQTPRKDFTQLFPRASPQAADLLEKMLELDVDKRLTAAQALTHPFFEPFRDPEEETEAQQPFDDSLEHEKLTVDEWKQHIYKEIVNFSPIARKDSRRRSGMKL
Assay [19] has as its target Serine/threonine-protein kinase 26 (Homo sapiens, UniProt Q9P289). Put plainly: Inhibition of MST4 by FRET assay.
Assay [20] concerns the target Serine/threonine-protein kinase Nek2 (Homo sapiens, UniProt P51955). The assay can be described thus: Inhibition of NEK2 by FRET assay.
Assay [21] concerns the target High affinity nerve growth factor receptor (Homo sapiens, UniProt P04629). The assay can be described thus: Inhibition of NTRK1 by FRET assay.
Assay [22] has as its target Serine/threonine-protein kinase PAK 3 (Homo sapiens, UniProt O75914). Put plainly: Inhibition of PAK3 by FRET assay.
The target of assay [23] is Serine/threonine-protein kinase pim-2 (Homo sapiens, UniProt Q9P1W9). The assay can be described thus: Inhibition of PIM2 by FRET assay.
Serine/threonine-protein kinase pim-2, sequence (Q9P1W9 whole entry): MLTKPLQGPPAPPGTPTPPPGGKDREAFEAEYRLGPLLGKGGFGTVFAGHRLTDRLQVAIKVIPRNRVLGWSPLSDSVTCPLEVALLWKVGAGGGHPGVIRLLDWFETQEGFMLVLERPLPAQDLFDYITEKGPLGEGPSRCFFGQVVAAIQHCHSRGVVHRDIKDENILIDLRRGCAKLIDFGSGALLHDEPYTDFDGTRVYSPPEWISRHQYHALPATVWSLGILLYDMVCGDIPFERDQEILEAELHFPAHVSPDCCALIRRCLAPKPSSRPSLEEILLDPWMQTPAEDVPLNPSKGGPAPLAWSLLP
For assay [24], the target named is Serine/threonine-protein kinase PLK3 (Homo sapiens, UniProt Q9H4B4). Put plainly: Inhibition of PLK3 by FRET assay.
Serine/threonine-protein kinase PLK3, sequence (Q9H4B4 whole entry): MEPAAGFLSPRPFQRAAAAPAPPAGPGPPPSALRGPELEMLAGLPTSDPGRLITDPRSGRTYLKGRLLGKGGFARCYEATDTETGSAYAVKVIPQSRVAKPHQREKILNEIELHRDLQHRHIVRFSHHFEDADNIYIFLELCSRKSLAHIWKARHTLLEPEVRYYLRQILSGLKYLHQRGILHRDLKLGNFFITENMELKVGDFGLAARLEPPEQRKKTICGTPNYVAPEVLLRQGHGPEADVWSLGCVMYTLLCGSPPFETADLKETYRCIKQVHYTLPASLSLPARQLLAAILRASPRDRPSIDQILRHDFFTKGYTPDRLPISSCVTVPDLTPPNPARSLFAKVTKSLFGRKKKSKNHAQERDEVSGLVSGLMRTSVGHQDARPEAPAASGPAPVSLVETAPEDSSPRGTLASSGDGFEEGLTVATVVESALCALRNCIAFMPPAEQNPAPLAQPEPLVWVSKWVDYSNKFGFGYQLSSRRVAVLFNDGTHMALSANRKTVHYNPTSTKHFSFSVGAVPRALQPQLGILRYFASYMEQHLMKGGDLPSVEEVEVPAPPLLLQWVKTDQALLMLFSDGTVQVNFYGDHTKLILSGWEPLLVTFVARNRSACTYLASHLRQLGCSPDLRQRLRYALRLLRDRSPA
The target in assay [25] is cAMP-dependent protein kinase catalytic subunit alpha (Homo sapiens, UniProt P17612). The assay can be described thus: Inhibition of PRKACA by FRET assay.
For assay [26], the target named is Protein kinase C theta type (Homo sapiens, UniProt Q04759). The assay can be described thus: Inhibition of PRKCQ by FRET assay.
Assay [27] has as its target Rho-associated protein kinase 1 (Homo sapiens, UniProt Q13464). Put plainly: Inhibition of ROCK1 by FRET assay.
Assay [28] addresses Ribosomal protein S6 kinase alpha-3 (Homo sapiens, UniProt P51812). Put plainly: Inhibition of RPS6KA3 by FRET assay.

Serine/threonine-protein kinase PAK 3, sequence (O75914 whole entry): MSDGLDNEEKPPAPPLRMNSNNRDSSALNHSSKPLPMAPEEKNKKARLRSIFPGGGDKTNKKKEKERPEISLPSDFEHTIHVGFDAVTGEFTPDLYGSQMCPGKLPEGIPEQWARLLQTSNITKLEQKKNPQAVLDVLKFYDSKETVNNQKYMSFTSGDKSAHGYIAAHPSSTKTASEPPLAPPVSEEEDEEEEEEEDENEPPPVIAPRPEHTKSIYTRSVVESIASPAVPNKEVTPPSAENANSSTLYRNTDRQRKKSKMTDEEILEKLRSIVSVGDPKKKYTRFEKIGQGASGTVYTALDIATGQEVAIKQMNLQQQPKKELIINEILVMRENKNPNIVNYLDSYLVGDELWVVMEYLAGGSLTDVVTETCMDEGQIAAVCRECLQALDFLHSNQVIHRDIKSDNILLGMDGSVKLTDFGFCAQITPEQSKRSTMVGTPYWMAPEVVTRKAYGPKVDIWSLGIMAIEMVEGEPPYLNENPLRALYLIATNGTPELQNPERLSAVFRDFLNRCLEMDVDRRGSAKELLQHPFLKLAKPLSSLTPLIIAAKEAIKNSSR
Interleukin-1 receptor-associated kinase 4, sequence (Q9NWZ3 whole entry): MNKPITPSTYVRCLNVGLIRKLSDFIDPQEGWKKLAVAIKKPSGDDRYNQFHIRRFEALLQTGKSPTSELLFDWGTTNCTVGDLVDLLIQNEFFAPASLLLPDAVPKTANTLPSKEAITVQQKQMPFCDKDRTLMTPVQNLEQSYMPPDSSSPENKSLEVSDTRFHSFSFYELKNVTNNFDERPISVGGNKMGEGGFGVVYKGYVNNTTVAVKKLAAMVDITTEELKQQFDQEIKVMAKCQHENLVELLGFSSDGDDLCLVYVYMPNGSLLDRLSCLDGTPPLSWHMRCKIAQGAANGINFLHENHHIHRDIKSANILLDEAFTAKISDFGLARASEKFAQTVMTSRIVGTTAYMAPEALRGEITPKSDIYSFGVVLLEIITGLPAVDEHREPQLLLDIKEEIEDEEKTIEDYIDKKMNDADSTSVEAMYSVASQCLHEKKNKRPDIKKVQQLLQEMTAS
Ribosomal protein S6 kinase alpha-3, sequence (P51812 whole entry): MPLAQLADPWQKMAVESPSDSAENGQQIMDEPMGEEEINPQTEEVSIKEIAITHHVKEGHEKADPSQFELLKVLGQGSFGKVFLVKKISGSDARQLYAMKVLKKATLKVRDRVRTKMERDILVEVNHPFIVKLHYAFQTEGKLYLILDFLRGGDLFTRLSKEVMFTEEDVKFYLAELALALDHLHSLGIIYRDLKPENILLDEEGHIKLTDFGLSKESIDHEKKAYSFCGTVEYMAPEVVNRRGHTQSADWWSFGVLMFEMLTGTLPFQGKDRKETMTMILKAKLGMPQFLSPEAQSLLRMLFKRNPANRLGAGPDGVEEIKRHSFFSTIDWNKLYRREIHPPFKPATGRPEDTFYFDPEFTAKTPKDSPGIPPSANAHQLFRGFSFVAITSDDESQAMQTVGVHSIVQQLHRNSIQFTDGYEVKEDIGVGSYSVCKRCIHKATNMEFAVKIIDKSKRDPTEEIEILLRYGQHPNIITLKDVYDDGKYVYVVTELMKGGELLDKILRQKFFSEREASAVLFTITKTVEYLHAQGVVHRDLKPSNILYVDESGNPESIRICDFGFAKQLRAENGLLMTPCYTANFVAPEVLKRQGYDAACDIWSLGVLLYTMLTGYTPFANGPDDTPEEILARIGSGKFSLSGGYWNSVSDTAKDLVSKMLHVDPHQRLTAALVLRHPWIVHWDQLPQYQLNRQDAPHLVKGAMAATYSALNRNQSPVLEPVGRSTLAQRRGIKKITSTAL
Serine/threonine-protein kinase 26, sequence (Q9P289 whole entry): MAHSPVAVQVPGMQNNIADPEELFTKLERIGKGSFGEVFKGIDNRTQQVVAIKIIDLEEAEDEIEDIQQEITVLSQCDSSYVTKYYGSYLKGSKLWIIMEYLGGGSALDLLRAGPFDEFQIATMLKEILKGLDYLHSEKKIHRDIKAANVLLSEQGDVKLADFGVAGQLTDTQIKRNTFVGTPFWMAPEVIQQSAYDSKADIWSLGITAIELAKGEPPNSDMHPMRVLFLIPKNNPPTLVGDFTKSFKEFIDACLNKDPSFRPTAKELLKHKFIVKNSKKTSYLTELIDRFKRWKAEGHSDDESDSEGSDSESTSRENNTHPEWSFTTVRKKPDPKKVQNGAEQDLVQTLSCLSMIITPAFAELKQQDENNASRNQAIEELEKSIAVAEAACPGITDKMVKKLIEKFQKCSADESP

In the case of `CSc1ccccc1Nc1nc(N2CCC(N3CCN(C)CC3)CC2)nc2c(NCC3CC3)ncnc12`, the IC50 (as a rule, the midpoint of a concentration-inhibition curve) in assay [1] was 30 nM.
Take `CSc1ccccc1Nc1nc(N2CCC3(CCNCC3)CC2)nc2c(NCC3CC3)ncnc12`: the IC50 in assay [1] was determined as 15 nM.
Same read-out and setting: next, `CSc1ccccc1Nc1nc(N2CCNC[C@H]2C)nc2c(NCC3CC3)ncnc12`: 58 nM; `CSc1ccccc1Nc1nc(N2C[C@@H](C)N[C@@H](C)C2)nc2c(NCC3CC3)ncnc12`: 110 nM; `CSc1ccccc1Nc1nc(N2CCC[C@@H]3CNC[C@@H]32)nc2c(NCC3CC3)ncnc12`: 440 nM.
Same read-out and setting: next, `CSc1ccccc1Nc1nc(N2CCC3(CCNC3)C2)nc2c(NCC3CC3)ncnc12` (stereo not given): 43 nM; `CSc1ccccc1Nc1nc(N(C)CC2CCNCC2)nc2c(NCC3CC3)ncnc12`: 66 nM; `CSc1ccccc1Nc1nc(N2C3CCC2CC(N)C3)nc2c(NCC3CC3)ncnc12` (stereo not given): 800 nM.
Regarding `CSc1ccccc1Nc1nc(N2CCNC(C)(C)C2)nc2c(NCC3CC3)ncnc12`, in [1], the IC50 amounted to 40 nM.
Same read-out and setting: next, `CSc1ccccc1Nc1nc(N2CCC(N3CCNCC3)CC2)nc2c(NCC3CC3)ncnc12`: 28 nM; `CSc1ccccc1Nc1nc(N2CCNc3ccccc3C2)nc2c(NCC3CC3)ncnc12`: 6000 nM.
Consider `CSc1ccccc1Nc1nc(N2CCNCC2)nc2c(NCC3CC3)ncnc12`, for which the IC50 in [2] is less than 500 nM.
As for `CSc1ccccc1Nc1nc(N2CCN(C3CCNCC3)CC2)nc2c(NCC3CC3)ncnc12`, the IC50 was 48 nM in assay [1]; less than 10000 nM in assay [3]; less than 10000 nM in assay [4]; less than 10000 nM in assay [5]; less than 10000 nM in [6]; less than 10000 nM in assay [7]. For the same compound, the IC50 in [8], in assay [9], in [10], in assay [11], in assay [12] and in assay [13] was less than 10000 nM in each case. Also, the IC50 in [14], in assay [15], in assay [16], in assay [17], in assay [18] and in [19] was less than 10000 nM in each case. Further, the IC50 in [20], in [21], in assay [22], in assay [23], in assay [24] and in assay [25] was less than 10000 nM in each case. Further, the IC50 in assay [26], in assay [27] and in [28] was less than 10000 nM each time.
Turning to `CSc1ccccc1Nc1nc(N2C[C@@H]3C[C@H]2CN3)nc2c(NCC3CC3)ncnc12`, the IC50 in [1] came to 4600 nM.
On the same count and under the same terms, for `CSc1ccccc1Nc1nc(N2CCC(C3CCNCC3)CC2)nc2c(NCC3CC3)ncnc12` the value was 50 nM.
Still for that read-out and setting: next, `CSc1ccccc1Nc1nc(N2C[C@@H]3CCCN[C@@H]3C2)nc2c(NCC3CC3)ncnc12`: 300 nM; `CSc1ccccc1Nc1nc(N2CCNC(C)C2)nc2c(NCC3CC3)ncnc12` (stereo not given): 70 nM.
With `CSc1ccccc1Nc1nc(N2CCC3(CNC3)C2)nc2c(NCC3CC3)ncnc12`, the results for the IC50 in [1] and in [2] were 2 nM and 150 nM, respectively.
